{
  "source": "patent US20240141294A1",
  "about": "“CGMP COMPLIANT PRODUCTION AND EXPANSION OF PLASMACYTOID DENDRITIC CELLS FROM HEMATOPOIETIC STEM AND PROGENITOR CELLS” (AARHUS UNIVERSITET, priority 2021, published 2024)",
  "key": {"[1]": {"system": "CD34+ HSPCs", "assay": "HSPC expansion and HSPC-pDC differentiation culture (cell numbers, viability, HSPC-pDC yield)", "type": "cell-based, human", "experimental": "Depending on optimization regiments, freshly or cryo-preserved HSPCs from various sources were differentiated to HSPC-pDCs using different types of medium. For STD and LD/RPMI conditions, HSPCs were cultured in RPMI 1640 (Lonza) supplemented with 10% heat-inactivated fetal calf serum (FCS) (HyClone®), 600 μg/mL L-Glutamine (Sigma), 200 U/mL penicillin and 100 μg/mL streptomycin (Gibco®, Life Technologies). For STD conditions, HSPCs were cultured at a fixed volume during pDC differentiation, versus a fixed density of 0.5-5×10^6 cells/mL for the LD condition. For serum-free (SFEM II) or CGMP serum-free medium (DC medium) conditions, HSPCs were cultured in SFEM II or DC medium at low density (0.5-5×10^6 cells/mL). […] All cytokines are from Peprotech. In addition, the small molecule inhibitor StemRegenin 1 (SR1, […] Technologies) was added at a concentration of 1 μM. For serum-free medium conditions, a concentration of 20 μg/mL streptomycin and 20 U/mL penicillin (Gibco, Life Technologies) was added. Moreover, for the CGMP DC medium condition, 50 μg/mL of ascorbic acid was added. Cells were cultured at 37° C., 95% humidity, and 5% CO2 for up to 21 days depending on optimizations. For the fixed density conditions, medium was replenished every 2-4 day depending on the growth of the HSPCs. Total cell numbers during expansion and differentiation of HSPCs was determined using a TC20 Automated Cell Counter (Bio-Rad). At the end of culture, HSPC-pDCs were enriched using a negative selection kit, according to manufacturer's instructions (EasySep Human Plasmacytoid Dendritic Cell Enrichment kit, […] Technologies).\nDe-identified umbilical cord blood (UCB) samples were obtained following scheduled caesarean section deliveries of healthy infants at Department of Gynecology and Obstetrics, Skejby University Hospital. Consent was obtained from the mothers. CD34^+ cord blood HSPCs (CB-HSPC) were subsequently purified using EasySep Human Cord Blood CD34 Positive Selection kit II, according to manufacturer's instructions ([…] Technologies). Briefly, a pre-enrichment of CD34+ cells was performed were bi-specific antibodies targeting unwanted cells were used during standard Ficoll-Hypaque (GE Healthcare) density-gradient centrifugation. CD34+ cells were subsequently isolated using anti-CD34 immunomagnetic beads (positive selection). CD34^+ CB HSPCs were either freshly used or cryo-preserved until use."}, "[2]": {"system": "HSPC-pDCs", "assay": "TLR7 or TLR9 agonist activation, functional type I IFN (HEK-blue IFN-α/β reporter)", "type": "cell-based, human", "experimental": "Priming of HSPC-pDCs was performed as previously described. Isolated HSPC-pDCs were primed in the same medium as the differentiation was done in (either RPMI 1640, SFEM II or DC medium). […] For HSPC-pDCs differentiated in DC medium, medium was also supplemented with 50 μg/mL ascorbic acid. Cells were primed for three days before being phenotypically or functionally characterized.\nTo analyze the capacity of HSPC-pDCs to produce type I IFN, 4×10^4 pDCs were seeded out in 96-well plates in the same medium as the differentiation was done in (either RPMI 1640, SFEM II or DC medium). […] Cells were subsequently stimulated with agonists directed against TLR7 (R837, tlrl-imq, InvivoGen) or TLR9 (CpG-A 2216, tlrl-2216-1, InvivoGen) at a final concentration of 2.5 μg/mL. Twenty hours post stimulation supernatants were harvested and cryopreserved at −20° C. until analysis.\nTo quantify functional type I IFN, the reporter cell line HEK-blue IFN-α/β was utilized, according to the manufacturer's instructions (InvivoGen). […] Activity of SEAP was assessed using QUANTI-Blue (InvivoGen). Color change was measured at an optical density (OD) of 620 nm using the SpectraMax iD3 platereader (Molecular Devices). […]"}},
  "data": [
    {"compound": "O=C1O[C@H]([C@@H](O)CO)C(O)=C1O", "note": "[ascorbic acid]", "values": [
      {"measurement": "viability of HSPC-pDCs isolated at day 21", "setting": "[1]; AA addition versus 72.8%±3.2% for DC medium alone", "value": 92.0, "unit": "%"},
      {"measurement": "percentage of HSPC-pDCs of the total population of cells", "setting": "[1]; AA supplementation of DC medium", "value": "without affecting"},
      {"measurement": "yield of HSPC-pDCs isolated at day 21", "setting": "[1]; DC medium+AA versus 0.5×10^9+0.3×10^9 for DC medium alone", "value": "1.0×10^9 HSPC-pDCs per 0.1×10^6 CD34+ H"},
      {"measurement": "expansion during HSPC-pDC differentiation", "setting": "[1]; DC medium+AA versus 13,456 fold (±6,953) for DC medium alone, 1×10^5 HSPCs seeded", "value": "33,554 fold"},
      {"measurement": "viability of expanding HSPCs during culture", "setting": "[1]; DC medium+AA vs DC medium alone, in particular Day 12+", "value": "significantly improved"},
      {"measurement": "type I IFN response to synthetic TLR7 and TLR9 agonists", "setting": "[2]; HSPC-pDCs from AA culture, isolated day 16 and 21, in contrast to DC medium alone", "value": "robust type I IFN response"},
      {"measurement": "cHSPC-pDC TLR7 and TLR9-mediated type I IFN production", "setting": "[2]; cHSPC-pDCs from peripheral blood cHSPCs, SFEM II, DC medium or DC medium+AA", "value": "required"}
    ]}
  ]
}
